This note sets out measurements from patent US20170190705A1, “Compositions and Methods for Inhibiting BMP” (THE BRIGHAM AND WOMAN'S HOSPITAL, INC., priority 2014, published 2017).

Data set [1] concerns HePG2 hepatocarcinoma cells. Format: cell-based. As to conditions: human. On the procedure:
The cells were incubated for 2 h (37° C. and 5% CO2) and allowed to settle and attach. Compounds of interest or DMSO were diluted in DMEM and added at final compound concentrations of 1 μM, 10 μM, and 100 μM. Cells were incubated for 4 hours and 24 hours after which the media was discarded. Cells were lysed by adding 30 μL of passive lysis buffer (Promega) and shaken at RT for 15 min. Cell viability was determined by quantifying the ATP present in each well by adding 10 μL of CellTiter-Glo (Promega) per well and measuring the light output Spectramax L luminometer (Molecular Devices) with an integration time of one second per well. Data was normalized to 100% viability for cells receiving only DMSO without any concurrent compound.

Data set [2] has as its target T1, ALK2 (Homo sapiens, UniProt Q04771, Q207D).
T1 construct: His tag (TEV-cleavable) (N, cleaved yes); made in house; host or cells: Sf9 insect cells (baculovirus)
T1 sequence (Q04771 201-499 Q207D): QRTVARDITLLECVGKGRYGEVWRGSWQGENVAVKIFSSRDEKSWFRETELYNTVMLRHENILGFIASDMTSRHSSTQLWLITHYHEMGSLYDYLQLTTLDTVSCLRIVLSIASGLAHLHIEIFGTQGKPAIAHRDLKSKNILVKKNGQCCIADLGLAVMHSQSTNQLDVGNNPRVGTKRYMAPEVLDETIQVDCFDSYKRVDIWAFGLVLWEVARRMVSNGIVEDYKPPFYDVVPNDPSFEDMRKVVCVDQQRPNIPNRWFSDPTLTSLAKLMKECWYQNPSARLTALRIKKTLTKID
Kind of data set: Thermal shift kinase assay ALK2. Format: binding. As to conditions: for ΔTmDiff.: ALK2 minus ALK5. On the procedure: Thermal melting experiments were performed using a Real Time PCR machine Mx3005p (Stratagene) with a protein concentration of 1-2 μM and 10 μM inhibitor as described by Niesen et al., Nat Protoc 2007, 2, 2212-21. Recombinant human kinases for DSF screening were prepared by SGC using the published methods of Sanvitale et al., PLoS One 2013, 8, e62721. The potency and selectivity of certain compounds of the invention based on thermal shift kinase and ligand induced transcriptional activity assays are shown in Table 2.

The test system of data set [3] is TGFβ1. Kind of data set: Ligand induced transcriptional activity assay TGFβ1 (CAGA-Luc). As to conditions: Homo sapiens; cell-based signaling inhibition.
Data set [4] concerns BMP6. As to the kind of experiment: Ligand induced transcriptional activity assay BMP6 (BRE-Luc). Format: cell-based. The note with it: for Fold Select.: TGFβ1 vs BMP6; for IC50: cell-based signaling inhibition, read-out: BMP6 IC50.

Like-named read-outs stand apart in the source and are kept apart here.

Take `COc1cc(-c2cc(-c3ccc(O)cc3)cnc2N)cc(OC)c1OC` [Compound 11, 4-(6-Amino-5-(3,4,5-trimethoxyphenyl)pyridin-3-yl)phenol]: the Cell viability in data set [1] (4 h, 1 μM) was 95%; in data set [1] (4 h, 10 μM) it was 98%; in data set [1] (4 h, 100 μM), 91%; in data set [1] (24 h, 1 μM) it was 99%; in data set [1] (24 h, 10 μM) it was 89%; in data set [1] (24 h, 100 μM) it was 82%. Further, the ΔTmDiff. in data set [2] worked out at 1.5. Further, the results for the 50% inhibitory concentration (IC50) in data set [3] and in data set [4] were 580 ± 50 nM and 20 ± 1 nM, respectively. In data set [4], the “Fold Select.” value came out at 28.
As for `COc1cc(-c2cnc(N)c(-c3cc(OC)c(OC)c(OC)c3)c2)ccc1O` [Compound 12, 4-(6-amino-5-(3,4,5-trimethoxyphenyl)pyridin-3-yl)-2-methoxyphenol], the Cell viability in data set [1] (4 h, 1 μM) is recorded as 96%; in data set [1] (4 h, 10 μM) it was 103%; in data set [1] (4 h, 100 μM) it was 93%; in data set [1] (24 h, 1 μM), 97%; in data set [1] (24 h, 10 μM), 88%; in data set [1] (24 h, 100 μM) it was 89%. For the same molecule, in data set [2], the ΔTmDiff. came out at 1.7. Further, the values for the half-inhibitory concentration (IC50) in data set [3] and in data set [4] were 2300 nM and 90 ± 30 nM, respectively.
With `COc1cc(-c2cc(-c3ccc(N4CCNCC4)cc3)cnc2N(C)C)cc(OC)c1OC` [Compound 25, N,N-dimethyl-5-(4-(piperazin-1-yl)phenyl)-3-(3,4,5-trimethoxyphenyl)pyridin-2-amine], the Cell viability in data set [1] (4 h, 1 μM) is 92%; in data set [1] (4 h, 10 μM) it was 103%; in data set [1] (4 h, 100 μM), 95%; in data set [1] (24 h, 1 μM) it was 101%; in data set [1] (24 h, 10 μM), 91%. Also, the ΔTmDiff. in data set [2] is given as 0.1. Further, the IC50 in data set [3] is 15000 nM; in data set [4], 1700 nM.
Take `COc1cc(-c2cc(-c3ccc(N4CCNCC4)cc3)cnc2Cl)cc(OC)c1OC` [Compound 27, 1-(4-(6-chloro-5-(3,4,5-trimethoxyphenyl)pyridin-3-yl)phenyl)piperazine]: the Cell viability in data set [1] (4 h, 1 μM) stood at 95%; in data set [1] (4 h, 10 μM), 103%; in data set [1] (4 h, 100 μM) it was 97%; in data set [1] (24 h, 1 μM), 101%; in data set [1] (24 h, 10 μM) it was 98%. Moreover, in data set [2], the ΔTmDiff. was found to be 3.8. For the same molecule, the IC50 in data set [3] came out at 90000 nM; in data set [4] it was 170 ± 60 nM. Besides, the “Fold Select.” value in data set [4] was 244.
For the molecule `COc1cc(-c2cc(-c3ccc(N4CCNCC4)cc3)cnc2OC)cc(OC)c1OC` [Compound 28, 1-(4-(6-methoxy-5-(3,4,5-trimethoxyphenyl)pyridin-3-yl)phenyl)piperazine], the Cell viability in data set [1] (4 h, 1 μM) is on record as 92%; in data set [1] (4 h, 10 μM), 102%; in data set [1] (24 h, 1 μM), 99%; in data set [1] (24 h, 10 μM), 98%. Also, in data set [2], the ΔTmDiff. was determined as 0.1. Further, the 50% inhibitory concentration (IC50) in data set [3] was 82000 nM; in data set [4], 1700 nM.
`Nc1ncc(-c2cccc(N3CCNCC3)c2)cc1-c1ccnc2ccccc12` [Compound 30, 5-(3-(piperazin-1-yl)phenyl)-3-(quinolin-4-yl)pyridin-2-amine]: the Cell viability was 92% in data set [1] (4 h, 1 μM); 104% in data set [1] (4 h, 10 μM); 104% in data set [1] (24 h, 1 μM); 92% in data set [1] (24 h, 10 μM); 5% in data set [1] (24 h, 100 μM). The ΔTmDiff. in data set [2] was determined as 2.5. For the same molecule, in data set [4], the IC50 amounted to 520 ± 60 nM.
For the molecule `Nc1ncc(-c2ccc(N3CCNCC3)cc2)cc1-c1cccc2ncccc12` [Compound 31, 5-(4-(piperazin-1-yl)phenyl)-3-(quinolin-5-yl)pyridin-2-amine], the Cell viability in data set [1] (4 h, 1 μM) amounted to 96%; in data set [1] (4 h, 10 μM) it was 103%; in data set [1] (4 h, 100 μM), 117%; in data set [1] (24 h, 1 μM) it was 105%; in data set [1] (24 h, 10 μM), 95%. The ΔTmDiff. in data set [2] was determined as 4.2. For the same molecule, in data set [4], the IC50 was determined as 170 ± 60 nM.
With `COc1cc(-c2cnn3cc(-c4ccc(N5CCNCC5)cc4)cnc23)cc(OC)c1OC` [Compound 32, 3-(3,4,5-trimethoxyphenyl)-6-[4-(1-piperazinyl)phenyl]pyrazolo[1,5-a]pyrimidine], the Cell viability in data set [1] (4 h, 1 μM) is recorded as 92%; in data set [1] (4 h, 10 μM) it was 101%; in data set [1] (24 h, 1 μM) it was 99%. Moreover, the ΔTmDiff. in data set [2] was 2.6. In addition, the concentration for half-maximal inhibition (IC50) in data set [4] amounted to 20 ± 2 nM.
For the molecule `COc1cc(-c2cc(-c3cccc(O)c3)cnc2N)cc(OC)c1OC` [Compound K02288, 3-(6-Amino-5-(3,4,5-trimethoxyphenyl)pyridin-3-yl)phenol, reference compound], the Cell viability came out at 103% in data set [1] (4 h, 1 μM); 107% in data set [1] (4 h, 10 μM); 115% in data set [1] (4 h, 100 μM); 106% in data set [1] (24 h, 1 μM); 110% in data set [1] (24 h, 10 μM). The thermal shift (ΔTm) at 10 µM in data set [2] (10 μM inhibitor) amounted to 13.2 °C. Besides, the ΔTmDiff. in data set [2] was 2.0. In data set [4], the half-maximal inhibitory concentration (IC50) came to 420 ± 170 nM.

For orientation: IC50 means the midpoint of a concentration-inhibition curve. One may read the ΔTm as the shift of the melting midpoint relative to a reference.
